# Like-named read-outs stand apart in the source and are kept apart here.
# What was measured:
# [1] = Rabbit developmental toxicity study with toxicokinetics; settings: female, New Zealand white, in vivo; for AUC(0-t) / Cmax / Tmax: pregnant rabbits; for AUC(0-t): GD 20, read-out: AUC0-24; for Cmax / Tmax: GD 20
# Method: For the toxicology assessment, 27-33 per rabbits per group were dosed.
# On GD 29, a laparohysterectomy was performed on each surviving female.
# [2] = Anesthetized dog intravenous cardiovascular study; assay type: in vivo
# Method: Whole blood samples were collected via a cannulated femoral vein at 0, 10, 20, and 29 minutes (timed from the start of each dose administration).
# A separate group of 4 dogs was infused with vehicle only (30-60 mL over 90 minutes) for comparison. […] Whole blood samples were collected for determination of peak plasma concentrations (see Section 5.3.3) following infusion of each dose.
# [3] = 2-week dog toxicity and toxicokinetic study; assay type: in vivo
# Method: Blood samples were collected on Day 0 and Day 13 of the study from up to 2 animals/gender/group.
# Clinical pathology evaluations (hematology and serum chemistry) were performed prior to the initiation of treatment (Week −1) and just prior to the scheduled necropsy. At termination, necropsies were conducted and selected organs were weighed. Selected tissues were examined microscopically for animals in the control and high-dose groups.
# [4] = female, beagle, in vivo, po, 5 mg/kg/day, females, 5 mg/kg/day, Day 0
# [5] = female, beagle, in vivo, po, 5 mg/kg/day, females, 5 mg/kg/day, Day 13
# [6] = female, beagle, in vivo, po, 10 mg/kg/day, females, 10 mg/kg/day, Day 0
# [7] = female, beagle, in vivo, po, 10 mg/kg/day, females, 10 mg/kg/day, Day 13
# [8] = female, beagle, in vivo, po, 20 mg/kg/day, females, 20 mg/kg/day, Day 0
# [9] = male, beagle, in vivo, po, 5 mg/kg/day, males, 5 mg/kg/day, Day 0
# [10] = male, beagle, in vivo, po, 5 mg/kg/day, males, 5 mg/kg/day, Day 13
# [11] = male, beagle, in vivo, po, 10 mg/kg/day, males, 10 mg/kg/day, Day 0
# [12] = male, beagle, in vivo, po, 10 mg/kg/day, males, 10 mg/kg/day, Day 13
# [13] = male, beagle, in vivo, po, 20 mg/kg/day, males, 20 mg/kg/day, Day 0
# [14] = male, beagle, in vivo, po, 20 mg/kg/day, males, 20 mg/kg/day, Day 13
smiles,measurement,setting,value
"Clc1ccc([C@]23CNC[C@H]2C3)cc1Cl [amitifadine, (+)-1-(3,4-dichlorophenyl)-3-azabicyclo[3.1.0]hexane]",AUC(0-t),"[1]; oral, 20 mg/kg/day",19200 ng·h/mL
same,NOAEL,"[1]; po, oral gavage GD 7-20, read-out: NOAEL for developmental toxicity",20 mg/kg/day
same,NOAEL,"[1]; po, oral gavage GD 7-20, read-out: NOAEL for maternal toxicity",10 mg/kg/day
same,Cmax,"[1]; po, 3 mg/kg/day",309 ng/mL
same,Tmax,"[1]; po, 3 mg/kg/day",1 h
same,AUC(0-t),"[1]; po, 3 mg/kg/day",1320 ng·h/mL
same,Cmax,"[1]; po, 10 mg/kg/day",1090 ng/mL
same,Tmax,"[1]; po, 10 mg/kg/day",1 h
same,AUC(0-t),"[1]; po, 10 mg/kg/day",5860 ng·h/mL
same,Cmax,"[1]; po, 20 mg/kg/day",3200 ng/mL
same,Tmax,"[1]; po, 20 mg/kg/day",1 h
same,hemolysis in derived plasma fractions,[2]; IV infusion 2-29 mg/kg cumulative,Dose-related hemolysis was apparent
same,change in BF,[2]; top dose,−57%
same,change in HR,[2]; top dose,+10%
same,change in PR interval vs baseline,[2]; top dose,−9%
same,change in QRS interval vs baseline,[2]; top dose,+2%
same,change in QTC interval vs baseline,[2]; top dose,+2%
same,change in femoral vascular resistance,[2]; top dose,+354%
same,(+) to (−) stereoisomer conversion,[3],no evidence of (+) to (−) stereoisomer conversion
same,NOAEL at 14 days,"[3]; both sexes, beagle, in vivo, oral capsule, 14 days, read-out: NOAEL for systemic toxicity",10 mg/kg/day
same,AUC(0-t),"[3]; female, beagle, in vivo, oral, 10 mg/kg/day, females, 10 mg/kg/day, Day 13, read-out: AUC0-24",11200 ng·h/mL
same,Cmax,[3]; [4],1650 ng/mL
same,Tmax,[3]; [4],2 h
same,AUC(0-t),"[3]; female, beagle, in vivo, po, 5 mg/kg/day, females, 5 mg/kg/day, Day 0, read-out: AUC0-24",5570 ng·h/mL
same,Cmax,[3]; [5],2040 ng/mL
same,Tmax,[3]; [5],1 h
same,AUC(0-t),"[3]; female, beagle, in vivo, po, 5 mg/kg/day, females, 5 mg/kg/day, Day 13, read-out: AUC0-24",5610 ng·h/mL
same,Cmax,[3]; [6],3450 ng/mL
same,Tmax,[3]; [6],1 h
same,AUC(0-t),"[3]; female, beagle, in vivo, po, 10 mg/kg/day, females, 10 mg/kg/day, Day 0, read-out: AUC0-24",15000 ng·h/mL
same,Cmax,[3]; [7],2800 ng/mL
same,Tmax,[3]; [7],2 h
same,Cmax,[3]; [8],9950 ng/mL
same,Tmax,[3]; [8],1 h
same,AUC(0-t),"[3]; female, beagle, in vivo, po, 20 mg/kg/day, females, 20 mg/kg/day, Day 0, read-out: AUC0-24",57100 ng·h/mL
same,Cmax,"[3]; female, beagle, in vivo, po, 20 mg/kg/day, females, 20 mg/kg/day, Day 13",3530 ng/mL
same,AUC(0-t),"[3]; female, beagle, in vivo, po, 20 mg/kg/day, females, 20 mg/kg/day, Day 13, read-out: AUC0-24",11500 ng·h/mL
same,AUC(0-t),"[3]; male, beagle, in vivo, oral, 10 mg/kg/day, males, 10 mg/kg/day, Day 13, read-out: AUC0-24",3170 ng·h/mL
same,Cmax,[3]; [9],1580 ng/mL
same,Tmax,[3]; [9],1 h
same,AUC(0-t),"[3]; male, beagle, in vivo, po, 5 mg/kg/day, males, 5 mg/kg/day, Day 0, read-out: AUC0-24",7360 ng·h/mL
same,Cmax,[3]; [10],1840 ng/mL
same,Tmax,[3]; [10],2 h
same,AUC(0-t),"[3]; male, beagle, in vivo, po, 5 mg/kg/day, males, 5 mg/kg/day, Day 13, read-out: AUC0-24",7550 ng·h/mL
same,Cmax,[3]; [11],3830 ng/mL
same,Tmax,[3]; [11],1 h
same,AUC(0-t),"[3]; male, beagle, in vivo, po, 10 mg/kg/day, males, 10 mg/kg/day, Day 0, read-out: AUC0-24",13800 ng·h/mL
same,Cmax,[3]; [12],1280 ng/mL
same,Tmax,[3]; [12],1 h
same,Cmax,[3]; [13],11600 ng/mL
same,Tmax,[3]; [13],1 h
same,AUC(0-t),"[3]; male, beagle, in vivo, po, 20 mg/kg/day, males, 20 mg/kg/day, Day 0, read-out: AUC0-24",41700 ng·h/mL
same,Cmax,[3]; [14],9280 ng/mL
same,Tmax,[3]; [14],1 h
same,AUC(0-t),"[3]; male, beagle, in vivo, po, 20 mg/kg/day, males, 20 mg/kg/day, Day 13, read-out: AUC0-24",32800 ng·h/mL

# Source: patent US20160346249A1 (priority 2012, published 2016)
